Experimental data: patent US9783551B2, “Pyranochromenyl phenol derivative, and pharmaceutical composition for treating metabolic syndrome or inflammatory disease” (GLACEUM, INC., priority 2013, dated 2017)

Columns and labels:
C2C12 cells = test: Glucose uptake (2-NBDG) in C2C12 cells; format: cell-based; conditions: 24 hours
Description: In terms of capacity of glucose uptake in C2C12 cells, the compound (Compound 15) of Example 14 of the present invention was compared with the existing Rosiglytazone and Metformin which were used or are currently used as a therapeutic agent for diabetes. The C2C12 cell was cultured in a Dulbecco's modified eagle medium (DMEM) supplemented with 10% fetal bovine serum (FBS), penicillin (120 unit/mL), and streptomycin (75 μg/mL), the medium used for differentiation was a DMEM medium supplemented with 1% horse serum, and the C2C12 cell was cultured in the DMEM medium for 4 days. The cell thus cultured was treated with Compound 15 in a low-glucose, serum-free medium supplemented with 2-[N-(7-nitrobenz-2-oxa-1,3-diazol-4-yl)amino]-2-deoxy-d-glucose (2-NBDG) for 24 hours to measure the glucose absorbance at an excitation wavelength of 485 nm and an emission wavelength of 535 nm using a fluorescent detector. The same experiment was performed on Rosiglytazone and Metformin.

PTP1B = PTP1B (Homo sapiens (Human), UniProt P18031); test: Experiment of PTP1B inhibition (p-NPP dephosphorylation); format: biochemical; conditions: 2 mM p-NPP substrate, 30° C., 30 minutes
PTP1B, sequence (P18031 whole entry, species assumed): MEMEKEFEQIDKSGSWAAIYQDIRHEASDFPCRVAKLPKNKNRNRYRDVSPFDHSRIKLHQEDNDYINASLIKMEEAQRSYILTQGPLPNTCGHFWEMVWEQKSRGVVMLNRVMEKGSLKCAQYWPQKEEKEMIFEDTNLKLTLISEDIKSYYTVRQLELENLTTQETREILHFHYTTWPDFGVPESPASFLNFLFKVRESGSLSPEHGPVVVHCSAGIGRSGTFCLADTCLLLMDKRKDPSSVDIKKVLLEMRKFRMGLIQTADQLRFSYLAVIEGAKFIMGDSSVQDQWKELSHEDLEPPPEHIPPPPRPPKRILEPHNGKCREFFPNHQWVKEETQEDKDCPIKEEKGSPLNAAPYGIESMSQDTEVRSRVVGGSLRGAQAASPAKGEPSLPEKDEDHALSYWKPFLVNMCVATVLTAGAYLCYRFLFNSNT
Excerpt: With respect to PTP1B, the degrees of inhibition (IC50 The half maximal inhibitory concentration) of glabridin, and compounds of Preparation Example 2 (Compound 1), Example 2 (Compound 3), Example 3 (Compound 4), Example 4 (Compound 5), Example 13 (Compound 14), Example 14 (Compound 15), Example 15 (Compound 16), Example 17 (Compound 18), Example 18 (Compound 19) and Example 20 (Compound 21) were compared to each other. For this purpose, the degree of inhibition activity for PTP1B was investigated by using 2 mM p-nitrophenyl phosphate (p-NPP) as a substrate to measure the dephosphorylation degree. First, PTP1B diluted with distilled water was reacted with 2 mM p-nitrophenyl phosphate {p-NPP, 0.1 M NaCl, 1 mM EDTA, 50 mM citrate pH 6.0, and 1 mM dithiothreitol (DTT)} and Compound 1 at various concentrations at 30° C. for 30 minutes, and then the reaction was terminated with a 1 N-sodium hydroxide (NaOH) solution. The absorbance of the samples thus prepared was measured to confirm the inhibition degree (IC50: The half maximal inhibitory concentration) for PTP1B activity according to the concentration of Compound 1. Even for glabridin, Compound 3, Compound 4, Compound 5, Compound 14, Compound 15, Compound 16, Compound 18, Compound 19, and Compound 21, the same measurement was performed.

RAW264.7 macrophages = test: RAW264.7 macrophage NO assay (LPS-induced NO production, Griess reagent); format: cell-based; conditions: for IC50: Mus musculus, RAW264.7, NO production, LPS 1 μg/ml, 24 hours
Description: (§1) After the pretreatment, the MTT (Sigma, M2128) reagent at a concentration of 0.5 mg/ml was further added thereto. After the cells were cultured in a 5% CO2 incubator for 4 hours, the supernatant was discarded, 150 μl of DMSO was added and was shaken for 30 minutes, and an ELISA micro plate reader (Bio Rad Laboratories Inc., California, USA, Model 680) was used to measure the absorbance at a wavelength of 540 nm. All the experimental values were calculated as an average value of three repeated experimental values of the cell protection rate for the control group, and an experiment of suppressing the NO production for each compound was carried out at a concentration in which no cytotoxicity was shown.
(§2) After the reaction, an ELISA micro plate reader (Bio Rad Laboratories Inc., California, USA, Model 680) was used to measure the absorbance at a wavelength of 540 nm. The suppression rate was calculated as a difference in amount of NO produced between the control group and the experimental group, and as shown in the following Table 7, Compounds 4, 5, 15, 16, 18, and the like of the present invention were excellent in the effect of suppressing the production of NO.

[1] = Chemical stability in 1% HCl in MeOH (HPLC); format: physicochemical
Description: (§3) The relative chemical stability of glabridin of Preparation Example 1, Example 3 (Compound 4), Example 4 (Compound 5) and Example 14 (Compound 15) were compared with each other. That is, 50 mg of each of glabridin, Compound 4, Compound 5, and Compound 15 was exactly weighed, dissolved in 50 ml of 1% HCl in MeOH and 10 ml of 1% NaOH in MeOH, and the concentrations of the compounds were examined by HPLC at each time level of 0, 8 hrs, 12 hrs, 24 hrs, 48 hrs, and 72 hrs. At this time, the concentrations of the compounds remaining in 1% HCl in MeOH and 1% NaOH in MeOH were determined using an internal standard (Compound 14 of Example 13). That is, 10 mg of Compound 14 was exactly weighed and dissolved in 100 ml of acetonitrile, 9 ml of this solution was mixed with 1 ml of the sample aliquoted at each time level, the mixture was analyzed by HPLC, and the concentrations of the compounds in the internal standard and in the above samples were determined by comparing the initial values.
(§4) The concentrations of the compounds remaining in 1% HCl in MeOH and 1% NaOH in MeOH at each time level are in the following Table 8 and FIG. 7 and the following Table 9 and FIG. 8, respectively.
(§5) The numerical values exceeding 100% in the following Tables 8 and 9 show those measured at a concentration is slightly higher than the initial measurement value, and this is due to the fact that an average value of the measured values was simply shown without considering a statistical error generated during the measurement. Since the measured value of about 95% or more is deemed to have practically no change in concentration, it may be seen that the compounds of the present invention are excellent in chemical stability.

DIO mice [2] = test: Organ weights and blood biochemistry of DIO mice after 28 days of administration; format: in vivo, C57BL/6 mice; conditions: 150 mg/kg
Description: (§6) Five-week-old female C57BL/6 mice (Narabio Co., Ltd.) were purchased and fed with only high-fat diet for at least 10 weeks to produce diet induced obesity ([…]) mice. Samples were exactly taken from Preparation Example 1 (glabridin) and the compounds of Examples of the present invention (Compounds 1 to 5, 7, 9, 11, 14 to 16, 21, and 23) according to the administration dose and put into Falcon tubes, 3 ml of a 0.5% methyl cellulose aqueous solution was added thereto and a vortex mixer was used to primarily mix the ingredients in a soft manner, and then a homogenizer (30,000 rpm, Ultra-Turrax® T10 Basic, IKA) was used to treat the sample for 3 minutes while 1.5 ml of a 0.5% methyl cellulose aqueous solution was added thereto. The sample thus prepared was administered through oral gavage using a disposable plastic syringe once daily for 28 days (4 weeks). The body weight was measured twice a week while the DIO mice were bred in this manner. Based on the data thus calculated, the anti-obesity effect (%) was calculated according to the equation defined as follows. Anti-Obesity Effect={(Body weight of control group)−(Body weight of experimental group)}/(Body weight of control group)×100
After the experiment was performed for 28 days (4 weeks) as described above, blood was simultaneously taken while the experimental animal was finally sacrificed, and each of the organs (liver, heart, kidney, pancreas, fat tissues and the like) was removed to measure the weight and observe peculiar matters.
In Table 3, { }, ( ) and the like were used in order to differentiate experiments which had been performed at different periods. Experiments without the parenthesis were those simultaneously performed under the same conditions.

BV2 microglia cells = test: BV2 cell NO assay (LPS-induced NO production, Griess reagent); format: cell-based; conditions: Mus musculus, BV-2, LPS 1 μg/ml, 24 hours
Description: as §1, with “pretreatment, 0.5 mg/ml of” for “pretreatment,”, “reagent” for “reagent at a concentration of 0.5 mg/ml”, “incubator,” for “incubator for 4 hours,”
as §2, with “6 and FIG. 6,” for “7,”, “NO, and the effect is also about 5 times to about 9 times better than that of glabridin.” for “NO.”

DIO mice [3] = test: Anti-obesity effect for DIO mice (body weight); format: in vivo, C57BL/6 mice; conditions: Mus musculus, 672 h; 4 weeks, 150 mg/kg, oral gavage once daily
Description: as §6

[4] = Chemical stability in 1% NaOH in MeOH (HPLC); format: physicochemical
Description: as §3, §4, §5

| IC50 (PTP1B) | IC50 (RAW264.7 macrophages) | concentration of compound remaining [1]; 0 | concentration of compound remaining ([1]; 8 h) | concentration of compound remaining ([1]; 24 h) | concentration of compound remaining ([1]; 48 h) | concentration of compound remaining ([1]; 72 h) | IC50 (BV2 microglia cells) | concentration of compound remaining [4]; 0 | concentration of compound remaining ([4]; 8 h) | concentration of compound remaining ([4]; 24 h) | concentration of compound remaining ([4]; 48 h) | concentration of compound remaining ([4]; 72 h) | Compound | inhibition in vivo at 150 mg/kg (DIO mice [3]) | other results |
| --- | --- | --- | --- | --- | --- | --- | --- | --- | --- | --- | --- | --- | --- | --- | --- |
|  |  |  |  |  |  |  |  |  |  |  |  |  | CN(CCOc1ccc(CC2SC(=O)NC2=O)cc1)c1ccccn1 (stereo not drawn) [Rosiglytazone] |  | 2-NBDG uptake (Fold Induction) (C2C12 cells; treatment concentration 50 μM): 1.94 ± 0.15 Fold Induction |
| 2.9 µM | 8.6 µM | 100% | 99% | 101% | 101% | 100% | 3.7 µM | 100% | 101% | 101% | 99% | 100% | CCc1ccc(C2COc3c(ccc4c3CCC(C)(C)O4)C2)c(O)c1 (stereo not drawn) [Compound 4, 3-(2-hydroxy-4-ethylphenyl)-8,8-dimethyl-2,3,4,8,9,10-hexahydropyrano [2,3-f] chromene] | 18% | effect of suppressing the production of NO (RAW264.7 macrophages; RAW264.7 macrophages, in words): excellent; stability in words ([1]; until 3 days (72 hours)): very stable; ALT (U/L) (DIO mice [2]; ( ) experiment): (58) U/L; AST (U/L) (DIO mice [2]; ( ) experiment): (209) U/L; BMI (DIO mice [2]; ( ) experiment): (2.9); FFA (μEq/L) (DIO mice [2]; ( ) experiment): (2380) μEq/L; Fat (g), weight of fat removed around the epididymis and the kidney (DIO mice [2]; ( ) experiment): (1.20) g; LDL (mg/dL) (DIO mice [2]; ( ) experiment): (18) mg/dL; Liver (g), weight of liver (DIO mice [2]; ( ) experiment): (1.25) g; stability in words ([4]; until 3 days (72 hours)): very stable |
| 48 µM | 9.3 µM | 100% | 99% | 94% | 82% | 74% | 19.6 µM | 100% | 71% | 38% | 23% | 13% | CC1(C)C=Cc2c(ccc3c2OC[C@@H](c2ccc(O)cc2O)C3)O1 [Glabridin, glabridin, reference compound] | 2% | ALT (U/L) (DIO mice [2]; experiment without parenthesis): 41 U/L; AST (U/L) (DIO mice [2]; experiment without parenthesis): 90 U/L; BMI (DIO mice [2]; experiment without parenthesis): 4.2; FFA (μEq/L) (DIO mice [2]; experiment without parenthesis): 1520 μEq/L; Fat (g), weight of fat removed around the epididymis and the kidney (DIO mice [2]; experiment without parenthesis): 2.70 g; LDL (DIO mice [2]; experiment without parenthesis): 10 mg/dL; Liver (g), weight of liver (DIO mice [2]; experiment without parenthesis): 1.23 g; ALT (U/L) (DIO mice [2]; { } experiment): {89} U/L; AST (U/L) (DIO mice [2]; { } experiment): {170} U/L; BMI (DIO mice [2]; { } experiment): {4.2}; FFA (μEq/L) (DIO mice [2]; { } experiment): {1913} μEq/L; Fat (g), weight of fat removed around the epididymis and the kidney (DIO mice [2]; { } experiment): {1.92} g; LDL (mg/dL) (DIO mice [2]; { } experiment): {17} mg/dL; Liver (g), weight of liver (DIO mice [2]; { } experiment): {1.48} g |
|  |  |  |  |  |  |  |  |  |  |  |  |  | CN(C)C(=N)N=C(N)N [Metformin] |  | 2-NBDG uptake (Fold Induction) (C2C12 cells; treatment concentration 20 μM): 1.89 ± 0.03 Fold Induction |
